Laboratory results: paper PMC8536627, “Hydrolytic stability of anticancer drugs and one metabolite in the aquatic environment” (Environmental Science and Pollution Research International, 2021)
Where “and” joins values, the source holds several entries; their conditions need not be identical. Equal values may be shown once. Entries after “also recorded” stand apart in the source; their conditions may differ. Read-outs that look alike come from different tables or passages of the source.

Experiments:
[1] = milli-Q water, room temperature, natural pH; ref Franquet-Griell et al. [2017]; cited from earlier work
[2] = physchem; details: for Hydrolytic stability in the preliminary test: pH 4, 7 and 9, 50 °C; for Hydrolytic stability in the preliminary test / Degradation level in the preliminary test: 5 days; for Degradation level in the preliminary test: dark
Procedure: The incubation was performed in the dark, in order to avoid the influence of the photolysis on degradation of the analytes. The water used for the preparation of buffers was autoclaved, all glassware was clean, flushed with methanol, and dried in high temperature. Samples were closed in glass tubes with a sealed cap. The air from above the solution was removed by a nitrogen stream just before capping. In the preliminary test, solutions of single analytes were prepared in each tested pH: 4, 7, and 9, which is required by the OECD guidelines. There was also a blank sample prepared for each pH. Samples in the preliminary test were prepared in two parallel replicates. Moreover, the complete preliminary test was repeated twice. The preliminary test was performed at 50 °C for 5 days. […] In the case of the extended tests, 7 measuring points were provided during the time of the test. Each measuring point was performed in two parallel replicates. […] The test was conducted for 30 days or to 90 % elimination of a compound. Obtained results were used to determine the hydrolysis rate constant (k) using equation: 1 lnCt/C0=kt
The HPLC-UV/Vis technique was applied to determine the level of hydrolytic degradation of the analytes. In the preliminary test, the control and blank samples were analyzed at the beginning and the end of the test. […] In the extended test, the samples collected in the time intervals were analyzed, and peak areas were compared to those obtained at the beginning of the test. This was used to determine the kinetic of this hydrolysis process by using the Equation 1. In general, each analyte was analyzed by a simple HPLC method with UV/Vis detection. Gemini C18 (Phenomenex, USA), 5 μm, 110 Å, 150 mm × 4.6 mm chromatographic column was applied for each method and three different mobile phases were used (water or 0.1 % HCOOH) mixed with the acetonitrile. The conditions applied during the LC-MS analysis with an ion trap detector for the qualitative analysis of the samples collected after the extended tests at 20 and 70 °C are presented in the Table S2.

[3] = set-up: method as in Negreira et al. ([2013b]); details: acidification of samples, organic modifier such as 50 % methanol or DMSO, previously tested conditions; ref Negreira et al. ([2013b]); cited from earlier work
[4] = HPLC water with 4 % DMSO, ref Negreira et al. ([2013a]), cited from earlier work
[5] = set-up: method as in Białk-Bielińska et al. [2017]; details: ref Białk-Bielińska et al. [2017]; cited from earlier work
[6] = ref Gómez-Canela et al. [2015], cited from earlier work
[7] = set-up: method as in Muñoz et al. ([1996]); details: 20 °C, pH 5; ref Muñoz et al. ([1996]); cited from earlier work
[8] = physchem; type: physicochemical; details: for half-life: buffer, read-out: t½, extrapolated half-life (converted)
Procedure: By obtaining at least two rate constants for two different temperatures, it is possible to calculate the rate constants and, in consequence, half-lives at other temperatures, according to the Arrhenius equation: 3 k=A×e^−E/R×Torlnk=−E/R×T+lnA
Therefore, these equations were applied to extrapolate the obtained results and calculate the rate constants and half-lives of unstable anticancer drugs in more environmentally relevant temperatures (4, 10, or 15 °C), which are typical to natural waters.
Additionally, these observations confirm that CP is much more vulnerable for hydrolysis than IF, which is interesting how two isomers (like CP and IF) may differently undergo hydrolysis process. […] If the conclusions were drawn only based on the results from the preliminary experiments (incubation at 50 °C for 5 days), it would be assumed that both compounds, especially CP, are very unstable. […] Moreover, using Equation 3, it was possible to extrapolate the results to determine the rate constants and half-lives at the temperatures 4, 10, and 15 °C, which are ordinary for environmental waters (Table 2).

[9] = physchem; type: physicochemical; details: for half-life: buffer
Procedure: Moreover, the complete preliminary test was repeated twice. […] Each measuring point was performed in two parallel replicates.
where t, time; ct, c0, concentration of the analyte at a time (0 means the beginning of the test); k, rate constant.
Based on this, the t1/2 was determined by using the equation: 2 t1/2=ln2/k
where t1/2, half-life of the analyte; k, rate constant.
The degradation was monitored for 30 days or until 90 % of a compound was degraded. Based on the obtained results (Fig. 4) the constant rates (k) and half-lives (t1/2) have been calculated (Table 1).
After determining the hydrolysis rate constants it was possible to calculate activation energy (Ea) of this process at each pH, either from plotting ln k from T^−1 (Figure 5) when there were three k values obtained for each compound and pH (CP at pH 4, 7, and 9 as well as IF at pH 4) or from the following equation (for IF at pH 7 and 9, where only two k values were obtained) (Table 1): 4 E=Rlnk2−lnk1/1/T1¯−1/T2
where R, gas constant (8.314 J/mol × K); k1, k2, rate constants for different temperatures; T, absolute temperature (K).

SMILES: N[C@@H](Cc1ccc(N(CCCl)CCCl)cc1)C(=O)O [melphalan]
- Hydrolytic stability in milli-Q water [1]: highly unstable

SMILES: CN(Cc1nc2c(N)nc(N)nc2nc1O)c1ccc(C(=O)N[C@@H](CCC(=O)O)C(=O)O)cc1 [7-OH-MTX, 7-hydroxymethotrexate]
- half-life ([2]; aqueous buffer): ≥ 365 days
- Hydrolytic stability in the preliminary test [2]: hydrolytically stable
- Degradation level in the preliminary test ([2]; pH 4, 50 °C): 7%
- Stability after acidification and with organic modifier [3]: stable
- Remained intact ([4]; 4 °C, 24 h): 86%
- Concentration decreased to ([4]; 4 °C, after 9 days): around 50%
- Stability in 24 h test ([4]; 15 °C, 24 h): none of the 7-OH-MTX left in the solution
- Degradation level / loss ([4]; 25 °C, 24 h incubation): full degradation
- Hydrolytic stability under ecotoxicological test conditions [5]: hydrolytically stable
- Photolytic stability under ecotoxicological test conditions [5]: susceptible to photolysis

SMILES: COc1cccc2c1C(=O)c1c(O)c3c(c(O)c1C2=O)C[C@@](O)(C(C)=O)C[C@@H]3O[C@H]1C[C@H](N)[C@H](O)[C@H](C)O1 [daunorubicin]
- Hydrolytic stability in milli-Q water [1]: highly unstable

SMILES: CCc1c2c(nc3ccc(OC(=O)N4CCC(N5CCCCC5)CC4)cc13)-c1cc3c(c(=O)n1C2)COC(=O)[C@]3(O)CC [irinotecan]
- Hydrolytic stability in milli-Q water [1]: highly unstable

SMILES: Nc1ccn([C@@H]2O[C@H](CO)[C@@H](O)C2(F)F)c(=O)n1 [gemcitabine]
- Hydrolytic stability in milli-Q water [1]: stable

SMILES: CC[C@]1(O)C[C@H]2CN(CCc3c([nH]c4ccccc34)[C@@](C(=O)OC)(c3cc4c(cc3OC)N(C=O)[C@H]3[C@@](O)(C(=O)OC)[C@H](OC(C)=O)[C@]5(CC)C=CCN6CC[C@]43[C@@H]65)C2)C1 [vincristine]
- Hydrolytic stability in milli-Q water [1]: highly unstable

SMILES: O=C(O)CCCc1ccc(N(CCCl)CCCl)cc1 [chlorambucil]
- Hydrolytic stability in milli-Q water [1]: highly unstable
- Remaining part degraded within 24 h ([6]; hard water, initial concentration 10 ng μL^−1, within 24 h): 19%
- Transformed at the beginning of the test ([6]; hard water, initial concentration 10 ng μL^−1): 81%
- Transformation in hard water ([6]; initial concentration 2 ng μL^−1): instant and complete transformation

SMILES: CCCCCOC(=O)Nc1nc(=O)n([C@@H]2O[C@H](C)[C@@H](O)[C@H]2O)cc1F [capecitabine]
- Hydrolytic stability in milli-Q water [1]: stable

SMILES: O=P1(NCCCl)OCCCN1CCCl (stereo not drawn) [IF, ifosfamide]
- Degradation level in the preliminary test ([2]; pH 7, 50 °C): 22.3%
- Degradation level in the preliminary test ([2]; pH 9, 50 °C): 27.5%
- half-life [7]: around 620 days
- k, extrapolated rate constant ([8]; 4 °C, pH 4): 8.3e-05 h⁻¹
- k, extrapolated rate constant ([8]; 4 °C, pH 7): 3e-06 h⁻¹
- k, extrapolated rate constant ([8]; 4 °C, pH 9): 4e-06 h⁻¹
- k, extrapolated rate constant ([8]; 10 °C, pH 4): 0.000107 h⁻¹
- k, extrapolated rate constant ([8]; 10 °C, pH 7): 5e-06 h⁻¹
- k, extrapolated rate constant ([8]; 10 °C, pH 9): 6e-06 h⁻¹
- k, extrapolated rate constant ([8]; 15 °C, pH 4): 0.000199 h⁻¹
- k, extrapolated rate constant ([8]; 15 °C, pH 7): 1.1e-05 h⁻¹
- k, extrapolated rate constant ([8]; 15 °C, pH 9): 1.6e-05 h⁻¹
- half-life ([8]; pH 4, 4 °C, pH 4): 349 days
- half-life ([8]; pH 4, 10 °C, pH 4): 271 days
- half-life ([8]; pH 4, 15 °C, pH 4): 146 days
- half-life ([8]; pH 7, 10 °C, pH 7): 6360 days
- half-life ([8]; pH 7, 15 °C, pH 7): 2580 days
- half-life ([8]; pH 9, 4 °C, pH 9): 6510 days
- half-life ([8]; pH 9, 10 °C, pH 9): 4520 days
- half-life ([8]; pH 9, 15 °C, pH 9): 1860 days
- Degradation in 30 days ([9]; 20 °C, pH 7): no degradation occurred; also recorded: no changes in the initial concentration; also recorded: completely stable
- Degradation in 30 days ([9]; 20 °C, pH 9): no degradation occurred; also recorded: no changes in the initial concentration; also recorded: completely stable
- k, hydrolysis rate constant ([9]; 20 °C, pH 4): 0.00038 h⁻¹
- k, hydrolysis rate constant ([9]; 50 °C, pH 4): 0.008 h⁻¹
- k, hydrolysis rate constant ([9]; 50 °C, pH 7): 0.0029 h⁻¹
- k, hydrolysis rate constant ([9]; 50 °C, pH 9): 0.0036 h⁻¹
- k, hydrolysis rate constant ([9]; 70 °C, pH 4): 0.059 h⁻¹
- k, hydrolysis rate constant ([9]; 70 °C, pH 7): 0.041 h⁻¹
- k, hydrolysis rate constant ([9]; 70 °C, pH 9): 0.049 h⁻¹
- half-life ([9]; pH 4, 20 °C, pH 4, read-out: Half-life (converted)): ~80 days
- half-life ([9]; pH 4, 20 °C, pH 4, read-out: t½, half-life (converted)): 76.8 days
- half-life ([9]; pH 4, 50 °C, pH 4, read-out: t½, half-life (converted)): 3.6 days
- half-life ([9]; pH 4, 70 °C, pH 4, read-out: t½, half-life (converted)): 0.488 days
- half-life ([9]; pH 7, 50 °C, pH 7, read-out: t½, half-life (converted)): 10.1 days
- half-life ([9]; pH 7, 70 °C, pH 7, read-out: t½, half-life (converted)): 0.704 days
- half-life ([9]; pH 9, 50 °C, pH 9, read-out: t½, half-life (converted)): 7.99 days
- half-life ([9]; pH 9, 70 °C, pH 9, read-out: t½, half-life (converted)): 0.583 days
- Ea, activation energy of hydrolysis ([9]; pH 4): 20.1 kcal/mol
- Ea, activation energy of hydrolysis ([9]; pH 7): 29.21 kcal/mol
- Ea, activation energy of hydrolysis ([9]; pH 9): 29.21 kcal/mol and 28.7 kcal/mol

SMILES: Cc1ccc(NC(=O)c2ccc(CN3CCN(C)CC3)cc2)cc1Nc1nccc(-c2cccnc2)n1 [IMT, imatinib]
- Hydrolytic stability in the preliminary test [2]: hydrolytically stable

SMILES: COc1c(C)c2c(c(O)c1C/C=C(\C)CCC(=O)O)C(=O)OC2 [mycophenolic acid]
- Hydrolytic stability in milli-Q water [1]: stable

SMILES: COc1cccc2c1C(=O)c1c(O)c3c(c(O)c1C2=O)C[C@@](O)(C(=O)CO)C[C@@H]3O[C@H]1C[C@H](N)[C@H](O)[C@H](C)O1 [doxorubicin]
- Hydrolytic stability in milli-Q water [1]: highly unstable
